# Experimental data as given in paper PMC9618959, “Cisapride induced hypoglycemia via the KCNH6 potassium channel” (Frontiers in Endocrinology, 2022).
# Columns and labels:
# KCNH6 [1] = target: T1, KCNH6 (Homo sapiens, UniProt Q9H252); assay: whole-cell patch-clamp, peak tail current in transfected HEK293 cells; assay type: cell-based
# T1 construct: human KCNH6 gene in pcDNA3.1, transiently expressed in HEK293 cells
# T1 sequence (Q9H252 1-958): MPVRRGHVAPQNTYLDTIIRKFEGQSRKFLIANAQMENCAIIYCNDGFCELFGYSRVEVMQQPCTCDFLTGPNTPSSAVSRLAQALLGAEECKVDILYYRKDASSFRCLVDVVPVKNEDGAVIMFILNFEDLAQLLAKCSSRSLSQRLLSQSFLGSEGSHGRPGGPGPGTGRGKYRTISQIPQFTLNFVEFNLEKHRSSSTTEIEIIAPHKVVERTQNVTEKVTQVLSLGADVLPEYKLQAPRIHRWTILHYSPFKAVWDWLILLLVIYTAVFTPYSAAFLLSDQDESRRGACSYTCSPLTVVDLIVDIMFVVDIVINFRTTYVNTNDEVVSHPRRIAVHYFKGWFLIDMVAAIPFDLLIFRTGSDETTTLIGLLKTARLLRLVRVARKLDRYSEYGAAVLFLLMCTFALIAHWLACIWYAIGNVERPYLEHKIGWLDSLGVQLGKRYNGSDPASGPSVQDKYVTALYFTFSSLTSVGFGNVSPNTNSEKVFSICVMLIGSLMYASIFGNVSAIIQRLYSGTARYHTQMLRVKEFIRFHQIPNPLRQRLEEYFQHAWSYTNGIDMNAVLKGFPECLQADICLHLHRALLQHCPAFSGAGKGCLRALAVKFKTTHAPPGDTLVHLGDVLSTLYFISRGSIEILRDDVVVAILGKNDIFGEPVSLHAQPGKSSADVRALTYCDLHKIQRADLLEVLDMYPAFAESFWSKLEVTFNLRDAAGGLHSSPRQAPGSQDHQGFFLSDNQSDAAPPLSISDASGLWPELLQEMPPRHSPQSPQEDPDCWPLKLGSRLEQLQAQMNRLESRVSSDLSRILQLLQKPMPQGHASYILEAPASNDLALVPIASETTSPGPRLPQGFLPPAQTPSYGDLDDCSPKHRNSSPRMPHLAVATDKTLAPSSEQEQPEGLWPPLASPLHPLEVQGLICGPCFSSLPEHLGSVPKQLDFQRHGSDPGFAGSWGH
# KCNH6 [2] = target: T1, KCNH6; assay: whole-cell patch-clamp in transfected HEK293 cells (inhibitor control); assay type: cell-based
Compound,IC50 (KCNH6 [1]) [nM],whole-cell patch-clamp in transfected HEK293 cells (inhibitor control) (KCNH6 [2])
COc1cc(N)c(Cl)cc1C(=O)NC1CCN(CCCOc2ccc(F)cc2)CC1OC (centres unmarked) [cisapride],6.04,–
CN(CCOc1ccc(NS(C)(=O)=O)cc1)CCc1ccc(NS(C)(=O)=O)cc1 [dofetilide],–,E4031 and dofetilide were used as inhibitor controls
